Measurements taken from US7375124B2, “Use of α-phenylthiocarboxylic and α-phenyloxycarboxylic acids with serum-glucose-lowering and serum-lipid-lowering activity” (Sigma-Tau Industrie Farmaceutiche Riunite S.p.A., priority 2002, dated 2008).

Legend:
mPPARαLBD/Gal4DBD = molecular target: T1, mPPARαLBD/Gal4DBD (Mus musculus, UniProt P23204); test: Transactivation assay mediated by mPPARαLBD/Gal4DBD in COS-7 cells (CAT reporter); assay type: cell-based
T1 construct: expressed in transfected cells; host or cells: COS-7 (monkey kidney fibroblasts)
T1 sequence (P23204 239-466 limits assumed): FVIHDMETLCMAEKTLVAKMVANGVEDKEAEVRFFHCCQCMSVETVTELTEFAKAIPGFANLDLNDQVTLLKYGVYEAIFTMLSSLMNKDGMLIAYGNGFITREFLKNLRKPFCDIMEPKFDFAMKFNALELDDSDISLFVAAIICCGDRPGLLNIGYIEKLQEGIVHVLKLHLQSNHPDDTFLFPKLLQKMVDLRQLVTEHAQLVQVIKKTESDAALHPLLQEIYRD
Text: In this model a transactivation assay is used in which the expression vector mPPARαLBD/Gal4 DBD allows the synthesis by the transfected cell of a chimeric protein, in which the ligand binding domain (LBD) of PPARα is fused with the DNA binding domain (DBD) of the transcription factor GAL4 of yeast [Luckow B. et al., Nucleic Acids Res. 15, 5490 (1987)]. Simultaneously, a plasmid (pG5CAT) is transfected which contains 5 copies of the high-affinity binding site for GAL4 (also called UAS, upstream activating sequence), upstream of the viral promoter E1b fused with the CAT reporter gene [Moya-Camarena S. Y. et al., J. Lipid Res. 40 (8), 1426-33 (1999)]. This model eliminates interference by possible endogenous receptors.
This is due to the fact that the activation of E1b and the production of CAT will occur exclusively thanks to the interaction of GAL4 DBD with its own response element (UAS). Since the transcription factor GAL4 is not expressed in […] cells, transactivation of the reporter gene can take place only when, as a result of the interaction of a ligand with the LBD of PPARα, the chimeric protein PPARα/GAL4 recognises the UAS sequence on the plasmid pG5CAT. Together with the expression vector and the reporter vector the cells were also transfected with the plasmid pCH110 which provides the internal control for the efficiency of transfection and the normalisation of the results.
A monkey kidney fibroblast cell line (COS-7) was used [Elbrecht A. et al., J. Biol. Chem. 274 (12), 7913-22 (1999)]. The cells were co-transfected with the reporter vector, the expression plasmid coding for the fusion protein Gal4 DBD/PPARαLBD and the control vector pCH110. The cells were exposed to increasing concentrations of the study compounds and CAT activity was evaluated. Untreated cells were used as controls.
(§1) Monkey kidney fibroblasts (COS-7) were cultured according to the usual cell culture techniques, at 37° C. in a 5% v/v carbon dioxide atmosphere using as the growth medium DMEM (Dulbecco's modified Eagle's medium) modified with 3.7 g/l of sodium bicarbonate, 4 mM L-glutamine, 4.5 g/l of glucose, 1 mM sodium pyruvate and 10% v/v of foetal bovine serum, in the presence of streptomycin 100 μg/ml and penicillin 100 U/ml final.
The cells were co-transfected using the transfection reagent FuGENE6 (Roche), consisting of a defined mixture of lipids capable of complexing the DNA and of transporting it into the cells. Twenty-four hours prior to transfection the cells were plated at a density of 1.2×10^5 cells/well in 12-well plates and maintained at 37° C. in a 5% v/v CO2 atmosphere. […] Briefly, the transfection mixture containing 0.8 μg of the expression vector, 1.6 μg of the reporter vector, 0.8 μg of the control vector and 9 μl of the FuGENE6 reagent per well was added directly to the cells in the presence of culture medium devoid of serum. After 5 hours, the transfection medium was replaced by 1 ml of culture medium complete with serum and antibiotics in the presence or absence of the molecules to be tested at 3 different concentrations (2, 20 and 100 μM). Wy-14,643 (2 μM), a known ligand of PPARα, was used as the positive reference compound.
After 48 hours' incubation at 37° C. in a 5% v/v CO2 atmosphere, the cells were washed twice with 1 ml of phosphate buffer (PBS) and removed mechanically from the wells in TEN buffer (Tris[hydroxymethyl]aminomethane 10 mM pH 8, ethylenediamine-tetraacetic acid 1 mM pH 8, sodium chloride 0.1 M). After centrifuging for 3 minutes at 1000 rpm, the cells were resuspended in 65 μl of lysis buffer (Tris-HCl 0.25 M, pH 8) and then lysed thanks to three rapid freeze-thaw cycles. The insoluble cellular materials (debris) were removed by centrifuging at 15,000 rpm for 15 minutes at 4° C., and the supernatant was recovered and used for the CAT and β-galactosidase activity assays. […]

PPARγ = molecular target: T2, PPARγ (Mus musculus, UniProt P37238); test: Transactivation assay mediated by PPARγ in NIH-3T3 cells (CAT reporter); assay type: cell-based
T2 construct: expressed in transfected cells; host or cells: NIH-3T3 (mouse embryonal fibroblasts)
T2 sequence (P37238 1-475 isoform P37238-2): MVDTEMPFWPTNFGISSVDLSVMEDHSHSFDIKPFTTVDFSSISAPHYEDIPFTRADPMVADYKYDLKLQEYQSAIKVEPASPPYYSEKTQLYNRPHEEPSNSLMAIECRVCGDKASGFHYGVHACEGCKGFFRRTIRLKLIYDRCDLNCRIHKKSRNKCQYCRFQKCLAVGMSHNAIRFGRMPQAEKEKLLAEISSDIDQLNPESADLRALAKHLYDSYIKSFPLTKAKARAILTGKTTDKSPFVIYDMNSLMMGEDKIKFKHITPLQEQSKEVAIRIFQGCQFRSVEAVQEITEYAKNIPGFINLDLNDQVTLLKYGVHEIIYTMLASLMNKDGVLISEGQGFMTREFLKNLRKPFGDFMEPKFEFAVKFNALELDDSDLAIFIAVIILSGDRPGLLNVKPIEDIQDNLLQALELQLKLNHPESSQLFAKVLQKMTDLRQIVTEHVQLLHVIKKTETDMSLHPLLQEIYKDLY
Text: A transactivation assay specific for PPARγ thus requires the simultaneous presence of the following in the preselected cell line: • a) a sufficient amount of PPARγ; • b) a sufficient amount of the 9 cis-retinoic acid receptor (RXR); • c) a chimeric plasmid containing the reporter gene controlled by a PPRE, located upstream of a viral heterologous promoter. In our case the reporter gene is chloramphenicol-acetyl transferase (CAT).
In the transactivation assay used, the preselected cells are transfected with the expression vector pSG5 Stop-mPPARg1 which allows the synthesis of the PPARγ receptor by the transfected cell. Simultaneously, a plasmid reporter (pBLCAT2-PPRE) is transfected which contains a peroxisome proliferator response element (PPRE) isolated by the gene promoter for acyl-CoA oxidase, upstream of the heterologous promoter of viral thymidine kinase (TK) fused with the reporter gene CAT. Since the endogenous cell levels of the RXR receptor are sufficiently high, it is not necessary to transfect an expression vector specific for RXR as well. […] Therefore, any increase in CAT levels will be the result of increased gene transcription dependent upon the dimerisation of PPARγ with RXR and upon the heterodimer bond formed with the peroxisome proliferator response element. Together with the expression vector and the reporter vector the cells are also transfected with the plasmid pCH110 which provides the internal control for the efficiency of transfection and the normalisation of the results
A cell line of mouse embryonal fibroblasts (NIH-3T3) was used [Hogan J. C. et al., Biochem Biophys Res Commun. 287 (2), 484-92 (2001)]. The cells were transfected with the reporter plasmid, the expression plasmid coding for the PPARγ receptor and the control vector pCH110. The cells were exposed to increasing concentrations of the study compounds and CAT activity was evaluated. Untreated cells were used as controls.
as §1, with “Mouse embryonal” for “Monkey kidney”, “(NIH-3T3)” for “(COS-7)”, “calf” for “foetal bovine”
The cells were co-transfected using the transfection reagent FuGENE6 (Roche), already described in the previous example. Twenty-four hours prior to transfection the cells were plated at a density of 8.0×10^4 cells/well in 12-well plates and maintained at 37° C. in a 5% v/v CO2 atmosphere. The culture medium, devoid of serum, was replaced 2 hours before transfection, and then the cells were treated with the transfection reagent FuGENE6, as described in the previous example. After 5 hours, the transfection medium was replaced by 1 ml of culture medium complete with serum and antibiotics in the presence or absence of the molecules to be tested at 3 different concentrations (2, 20 and 100 μM). Rosiglitazone, a known ligand of PPARγ, was used as the positive reference compound.
The cell protein extracts were prepared and the CAT activity assay was conducted exactly as described in the previous example.
As an internal control for the normalisation of the CAT activity in relation to the transfection efficiency, β-galactosidase activity coded for by the corresponding gene in the co-transfected plasmid pCH110 was used.
β-galatosidase activity was measured exactly as described in the previous example.
For the normalisation of the CAT assay results in relation to […] activity the formula described in the previous example was used.

| SMILES | Activation of reporter gene CAT as a percentage of the reference compound (WY-14,643 2 μM = 100%) (mPPARαLBD/Gal4DBD; 2 μM) [%] | Activation of reporter gene CAT as a percentage of the reference compound (WY-14,643 2 μM = 100%) (mPPARαLBD/Gal4DBD; 20 μM) [%] | Activation of reporter gene CAT as a percentage of the reference compound (WY-14,643 2 μM = 100%) (mPPARαLBD/Gal4DBD; 100 μM) [%] | Activation of the gene-reporter CAT as a percentage of the reference compound (rosiglitazone 2 μM = 100%) (PPARγ; 2 μM) [%] | Activation of the gene-reporter CAT as a percentage of the reference compound (rosiglitazone 2 μM = 100%) (PPARγ; 20 μM) [%] | Activation of the gene-reporter CAT as a percentage of the reference compound (rosiglitazone 2 μM = 100%) (PPARγ; 100 μM) [%] |
| --- | --- | --- | --- | --- | --- | --- |
| CC(C)(Sc1cccc(OCCc2ccc3ccccc3c2)c1)C(=O)O [Example 18, 2-[3-[2-(2-naphthyl)ethoxy]phenylthio]-2-methylpropanoic acid] | 85 | 96.4 | 151.9 | 25 | 67 | 82.2 |
| CC(C)(Sc1cccc(OCCc2ccc(Cl)cc2Cl)c1)C(=O)O [Example 13, 2-[3-(2-(2,4-dichlorophenyl)ethoxy)phenylthio]-2-methylpropanoic acid] | 132.3 | 199.3 | 203.8 | 61.6 | 91.6 | 101 |
